Results reported in ChEMBL document CHEMBL5385872, “Design and syntheses of a bimolecular STING agonist based on the covalent STING antagonist” (Eur J Med Chem, 2023).
The source made the active and inactive calls. The calls are words filed in the database; no cut-off is given here.

Assays:
Mus musculus [1] = assay: Induction of immune-activation effect in wild type female BALB/c mouse assessed as increase in serum TNFalpha level at 15 to 30 mg/kg, ip measured after 24 to 48 hrs by ELISA relative to control; type: functional, organism-based; conditions: dose 15-30 mg/kg, time 24-48 hrs
[2] = molecular target: Stimulator of interferon genes protein (Homo sapiens) (UniProt Q86WV6); assay: Induction of oligomerization of STING in human HeLa cells transfected with wild type STING (unknown origin) assessed as intracellular puncta formation at 10 uM measured after 1 hr by DAPI staining based immunofluorescence microscopy; type: cell-based; conditions: filed as agonist
Stimulator of interferon genes protein (Homo sapiens), sequence (Q86WV6 whole entry): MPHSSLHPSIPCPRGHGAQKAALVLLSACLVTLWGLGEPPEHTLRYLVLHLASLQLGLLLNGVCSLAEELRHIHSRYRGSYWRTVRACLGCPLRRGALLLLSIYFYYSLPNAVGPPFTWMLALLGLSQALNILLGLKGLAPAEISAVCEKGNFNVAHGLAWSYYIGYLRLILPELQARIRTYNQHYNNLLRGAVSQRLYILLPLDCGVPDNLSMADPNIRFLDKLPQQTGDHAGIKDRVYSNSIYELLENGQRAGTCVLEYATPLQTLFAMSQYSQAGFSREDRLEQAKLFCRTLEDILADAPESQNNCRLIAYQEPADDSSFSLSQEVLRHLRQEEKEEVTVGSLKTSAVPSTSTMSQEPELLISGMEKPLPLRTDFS

THP-1 = assay: Effect on STING level in human THP1 cells at 2.5 to 20 uM incubated for 8 hrs by Western blot analysis; type: functional, cell-based; conditions: dose 2.5-20 µM
[3] = Antiviral activity against HSV infected in human HT-1080 cells assessed as reduction viral RNA expression pretreated for 1 hr followed by infection measured after 18 hrs by qRT-PCR analysis; type: functional, cell-based; conditions: Herpes simplex virus unknown type
HT-1080 [4] = assay: Synergistic increase in […]-induced TBK1 phosphorylation in human HT-1080 cells by Western blot analysis; type: functional, cell-based
Vero = assay: Cytotoxicity against interferon production defective African green monkey Vero cells assessed as cell viability measured after 72 hrs by MTT assay; type: functional, cell-based; conditions: Chlorocebus sabaeus
[5] = molecular target: Stimulator of interferon genes protein (Homo sapiens) (UniProt Q86WV6); assay: Induction of STING-dependent gene expression in human HT-1080 cells assessed as IFNbeta mRNA expression at 20 uM incubated for 8 hrs by qRT-PCR analysis; type: cell-based; conditions: filed as agonist
[6] = test system: Stimulator of interferon genes protein (Homo sapiens), Q86WV6 [C148A]; assay: Induction of STING C148A mutant (unknown origin) mediated TBK1 phosphorylation in human HeLa cells transfected with STING C148A mutant at 10 uM measured after 5 hr by Western blot analysis; type: cell-based; conditions: filed as agonist
Stimulator of interferon genes protein (Homo sapiens), Q86WV6 [C148A], sequence (Q86WV6 whole entry C148A): as the sequence (Q86WV6 whole entry) above, with C148A counted along it

[7] = molecular target: Stimulator of interferon genes protein (Homo sapiens) (UniProt Q86WV6); assay: Induction of STING-dependent gene expression in human HT-1080 cells assessed as increase in diABZI induced IFNbeta mRNA expression at 20 uM incubated for 8 hrs by qRT-PCR analysis; type: cell-based; conditions: filed as agonist
[8] = molecular target: T1, Stimulator of interferon genes protein (Mus musculus) (UniProt Q3TBT3); assay: Agonist activity at STING in mouse BMDM cells assessed as increase in TBK1 phosphorylation at 2.5 to 20 uM measured after 5 hrs by Western blot analysis; type: cell-based; conditions: filed as agonist, dose 2.5-20 µM
T1 sequence (whole entry): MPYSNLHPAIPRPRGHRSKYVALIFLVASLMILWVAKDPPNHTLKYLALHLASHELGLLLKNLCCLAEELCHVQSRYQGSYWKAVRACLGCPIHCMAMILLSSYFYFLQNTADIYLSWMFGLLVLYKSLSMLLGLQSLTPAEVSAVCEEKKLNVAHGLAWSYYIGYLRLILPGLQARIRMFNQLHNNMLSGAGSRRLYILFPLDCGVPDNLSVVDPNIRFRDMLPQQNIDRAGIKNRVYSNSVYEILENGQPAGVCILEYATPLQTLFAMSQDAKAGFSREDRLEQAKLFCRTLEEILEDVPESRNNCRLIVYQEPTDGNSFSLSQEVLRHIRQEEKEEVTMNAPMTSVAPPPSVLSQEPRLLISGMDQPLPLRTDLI

HT-1080 [9] = assay: Effect on TBK1 phosphorylation in STING - knockout human HT1080 cells at 20 uM measured after 5 hrs by Western blot analysis; type: functional, cell-based
HT-1080 [10] = assay: Synergistic increase in HSV infection-induced TBK1 phosphorylation in human HT-1080 cells by Western blot analysis; type: functional, cell-based
RAW264.7 [11] = assay: Synergistic increase in HSV infection-induced TBK1 phosphorylation in mouse RAW264.7 cells by Western blot analysis; type: functional, cell-based
[12] = molecular target: Stimulator of interferon genes protein (Homo sapiens) (UniProt Q86WV6); assay: Agonist activity at STING in human THP1 cells assessed as increase in TBK1 phosphorylation at 2.5 to 20 uM measured after 5 hrs by Western blot analysis; type: cell-based; conditions: THP-1, filed as agonist, dose 2.5-20 µM
SARS-CoV-2 = assay: Antiviral activity against SARS-CoV-2 assessed as inhibition of replication by qRT-PCR analysis; type: functional, organism-based; conditions: Severe acute respiratory syndrome coronavirus 2
[13] = molecular target: Stimulator of interferon genes protein (Homo sapiens) (UniProt Q86WV6); assay: Agonist activity at STING in human HT-1080 cells assessed as increase in diABZI-induced TBK1 phosphorylation at 2.5 to 20 uM measured after 5 hrs by Western blot analysis; type: cell-based; conditions: filed as agonist, dose 2.5-20 µM
RAW264.7 [14] = assay: Synergistic increase in […]-induced TBK1 phosphorylation in mouse RAW264.7 cells by Western blot analysis; type: functional, cell-based
[15] = molecular target: T1, Stimulator of interferon genes protein (Mus musculus); assay: Agonist activity at STING in mouse embryonic fibroblast cells assessed as increase in TBK1 phosphorylation at 2.5 to 20 uM measured after 5 hrs by Western blot analysis; type: cell-based; conditions: MEF, filed as agonist, dose 2.5-20 µM
[16] = molecular target: Stimulator of interferon genes protein (Homo sapiens) (UniProt Q86WV6); assay: Induction of STING-dependent gene expression in human THP1 cells assessed as TNFalpha mRNA expression at 2.5 to 20 uM incubated for 8 hrs by qRT-PCR analysis; type: cell-based; conditions: THP-1, filed as agonist, dose 2.5-20 µM
[17] = molecular target: Stimulator of interferon genes protein (Homo sapiens) (UniProt Q86WV6); assay: Induction of STING-dependent gene expression in human HT-1080 cells assessed as TNFalpha mRNA expression at 20 uM incubated for 8 hrs by qRT-PCR analysis; type: cell-based; conditions: filed as agonist
[18] = molecular target: Stimulator of interferon genes protein (Homo sapiens) (UniProt Q86WV6); assay: Induction of wild type STING mediated TBK1 phosphorylation in human HeLa cells transfected with wild type STING at 10 uM measured after 5 hr by Western blot analysis; type: cell-based; conditions: filed as agonist
[19] = molecular target: Stimulator of interferon genes protein (Homo sapiens) (UniProt Q86WV6); assay: Agonist activity at STING in human HT-1080 cells assessed as increase in TBK1 phosphorylation at 2.5 to 20 uM measured after 5 hrs by Western blot analysis; type: cell-based; conditions: filed as agonist, dose 2.5-20 µM
[20] = molecular target: Stimulator of interferon genes protein (Homo sapiens) (UniProt Q86WV6); assay: Induction of STING-dependent gene expression in human HT-1080 cells assessed as increase in […] induced IFNbeta mRNA expression at 20 uM incubated for 8 hrs by qRT-PCR analysis; type: cell-based; conditions: filed as agonist
[21] = molecular target: Stimulator of interferon genes protein (Homo sapiens) (UniProt Q86WV6); assay: Induction of STING dimerization in human HT-1080 cells at 2.5 to 20 uM measured after 5 hrs by Western blot analysis; type: cell-based; conditions: filed as agonist, dose 2.5-20 µM
[22] = molecular target: Stimulator of interferon genes protein (Homo sapiens) (UniProt Q86WV6); assay: Agonist activity at STING in human HT-1080 cells assessed as increase in ADU-S100-induced TBK1 phosphorylation at 2.5 to 20 uM measured after 5 hrs by Western blot analysis; type: cell-based; conditions: filed as agonist, dose 2.5-20 µM
Mus musculus [23] = assay: Induction of immune-activation effect in wild type female BALB/c mouse assessed as increase in serum IFNbeta level at 15 to 30 mg/kg, ip measured after 24 to 48 hrs by ELISA relative to control; type: functional, organism-based; conditions: dose 15-30 mg/kg, time 24-48 hrs
[24] = molecular target: Stimulator of interferon genes protein (Homo sapiens) (UniProt Q86WV6); assay: Induction of wild type STING dimerization in human HeLa cells transfected with wild type STING at 10 uM measured after 5 hr by Western blot analysis; type: cell-based; conditions: filed as agonist
[25] = test system: Stimulator of interferon genes protein (Homo sapiens), Q86WV6 [V113Q,G114Q,P115Q]; assay: Induction of STING V113Q/G114Q/P115Q mutant (unknown origin) mediated TBK1 phosphorylation in human HeLa cells transfected with STING C148A mutant at 10 uM measured after 5 hr by Western blot analysis; type: cell-based; conditions: filed as agonist
Stimulator of interferon genes protein (Homo sapiens), Q86WV6 [V113Q,G114Q,P115Q], sequence (Q86WV6 whole entry V113Q/G114Q/P115Q): as the sequence (Q86WV6 whole entry) above, with V113Q, G114Q, P115Q counted along it

RAW264.7 [26] = assay: Cytotoxicity against mouse RAW264.7 cells assessed as cell viability measured after 72 hrs by MTT assay; type: functional, cell-based; conditions: RAW264.7, 72 h

O=C(NCCCCCNC(=O)c1ccc([N+](=O)[O-])o1)c1ccc([N+](=O)[O-])o1
Activity (Mus musculus [1]): Active | Activity [2]: Active | Activity (THP-1): inactive | EC50 [3]: 6.15 µM | Activity (HT-1080 [4]): Active | IC50 (Vero): 28.4 µM | Activity [5]: Active | Activity [6]: Active | Activity [7]: Active | Activity [8]: Active | Activity (HT-1080 [9]): inactive | Activity (HT-1080 [10]): inactive | Activity (RAW264.7 [11]): Active | Activity [12]: Active | EC50 (SARS-CoV-2): 10.7 µM | Activity [13]: Active | Activity (RAW264.7 [14]): Active | Activity [15]: Active | Activity [16]: Active | Activity [17]: Active | Activity [18]: Active | Activity [19]: Active | Activity [20]: Active | Activity [21]: Active | Activity [22]: Active | Activity (Mus musculus [23]): Active | Activity [24]: Active | Activity [25]: Active | IC50 (RAW264.7 [26]): 8.69 µM
